Results taken from patent publication US6514997B2, “Antipicornaviral compounds and compositions, their pharmaceutical uses, and materials for their synthesis” (Agouron Pharmaceuticals, Inc., priority 1999, dated 2003).
Where two headings read alike, the source gives them in different places.

Assays:
HRV-14 = experiment: Antirhinoviral H1-HeLa cell culture assay (XTT cell protection, EC50), HRV-14; format: cell-based, human rhinovirus (HRV) serotype-14 in H1-HeLa cells; settings: Rhinovirus B, HRV14, H1-HeLa
Summary of the method: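 H1-HeLa cells were infected with HRV-14 at m.o.i. 0.13, or mock-infected, and incubated with compound for two days. Cell protection was read by XTT/PMS formazan absorbance at 450/650 nm to give EC50. CC50 came from mock-infected cells, and TI = CC50/EC50.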

[1] = target: T1, Recombinant rhinovirus 3C protease, serotype 14 (Human rhinovirus 14, UniProt P03303); experiment: Inhibition of rhinovirus 3C protease (FRET assay, kobs/[I]), serotype 14; format: biochemical
T1 construct: Recombinant rhinovirus 3C proteases; made in house
Summary of the method: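 Enzyme-start FRET assay with ~1 μM DABCYL/EDANS peptide substrate and 50-100 nM recombinant protease in 50 mM tris pH 7.6, 1 mM EDTA, 2% DMSO. Cleavage followed as fluorescence increase; kobs/[I] derived from progress curves.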

[2] = system: strains of human rhinovirus (HRV); experiment: Antirhinoviral H1-HeLa cell culture assay (XTT cell protection, EC50), other HRV strains; format: cell-based, human rhinovirus in H1-HeLa cells; settings: read-out: EC50
Summary of the method: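 H1-HeLa cells infected, or mock-infected, were incubated with compounds for two days. Cell protection measured by XTT/PMS formazan absorbance at 450/650 nm; TI taken as CC50 divided by EC50.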

[3] = system: Coxsackievirus type B3 (CVB3); experiment: Anticoxsackieviral cell culture assay (XTT, EC50), CVB3; format: cell-based, coxsackievirus B3 in H1-HeLa cells
Procedure: Anticoxsackieviral Cell Culture Assay:
Coxsackievirus types A-21 (CAV-21) and B3 (CVB3) were purchased from American Type Culture Collection (ATCC, Rockville, Md.). Virus stocks were propagated and antiviral assays were performed in H1-HeLa cells (ATCC). Cells were grown in minimal essential medium with 10% fetal bovine serum (Life Technologies, Gaithersburg, Md.). The ability of the compounds of this invention to protect cells against either CAV-21 or CVB3 infection was measured by the XTT dye reduction method. This method is described in Weislow et al., J. Natl. Cancer Inst. (1989), vol. 81, 577-586. H1-HeLa cells were infected with CAV-21 or CVB3 at a multiplicity of infection (m.o.i.) of 0.025 or 0.075, respectively, or mock-infected with medium only. H1-HeLa cells were plated at 4×10^4 cells per well in a 96-well plate and incubated with appropriate concentrations of the test compound. One day (CVB3) or two days (CAV-21) later, XTT/PMS was added to test plates and the amount of formazan produced was quantified spectrophotometrically at 450/650 nm. […] The therapeutic index (TI) was calculated by dividing the CC50 by the EC50.

[4] = Cytotoxicity (CC50) in uninfected MRC-5 cells, XTT dye reduction; format: cell-based, human; settings: human, MRC-5 cells, uninfected (mock-infected)
Procedure: Echovirus type 11 (ECHO 11) was purchased from ATCC (Rockville, Md.). Virus stocks were propagated and antiviral assays were performed in MRC-5 cells (ATCC). Cells were grown in minimal essential medium with 10% fetal bovine serum (Life Technologies, Gaithersburg, Md.). The ability of the compounds of this invention to protect cells against ECHO 11 infection was measured by the XTT dye reduction method (Weislow et al., J. Natl. Cancer Inst. (1989), vol. 81, 577-586). MRC-5 cells were infected with ECHO 11 at an m.o.i. of 0.003 or 0.004, respectively, or mock-infected with medium only. Infected or uninfected cells were added at 1×10^4 cells per well and incubated with appropriate concentrations of compound. Four days later, XTT/PMS was added to test plates, and the amount of formazan produced was quantified spectrophotometrically at 450/650 nm. […] The therapeutic index (TI) was calculated by dividing the CC50 by the EC50. Activity of the compounds against enterovirus type 70 (EV 70) may be measured by the same assay as described above in this section. Enterovirus type 70 (EV 70) may be obtained from the American Type Culture Collection ATCC (Rockville, Md.).

coxsackievirus B2 (CVB2) = experiment: Anticoxsackieviral cell culture assay (EC50), CVB2; format: cell-based; settings: Enterovirus B
[5] = pH 7.6, HRV-14 3C protease, read-out: kobs/[I] (3C protease inhibition activity)
[6] = Human rhinovirus sp., H1-HeLa, HRV-Hanks
[7] = Human rhinovirus sp., HRV3, H1-HeLa, HRV-3
[8] = Human rhinovirus sp., HRV9, H1-HeLa, HRV-9
[9] = Human rhinovirus sp., HRV10, H1-HeLa, HRV-10
[10] = Human rhinovirus sp., HRV11, H1-HeLa, HRV-11
[11] = Human rhinovirus sp., HRV13, H1-HeLa, HRV-13
[12] = Human rhinovirus sp., HRV16, H1-HeLa, HRV-16
[13] = Human rhinovirus sp., HRV19, H1-HeLa, HRV-19
[14] = Human rhinovirus sp., HRV25, H1-HeLa, HRV-25
[15] = Human rhinovirus sp., HRV39, H1-HeLa, HRV-39
[16] = Human rhinovirus sp., HRV78, H1-HeLa, HRV-78
[17] = Human rhinovirus sp., HRV87, H1-HeLa, HRV-87
[18] = pH 7.6, HRV-14, read-out: kobs/[I] (3C protease inhibition activity)

T1 sequence (P03303 1538-1719): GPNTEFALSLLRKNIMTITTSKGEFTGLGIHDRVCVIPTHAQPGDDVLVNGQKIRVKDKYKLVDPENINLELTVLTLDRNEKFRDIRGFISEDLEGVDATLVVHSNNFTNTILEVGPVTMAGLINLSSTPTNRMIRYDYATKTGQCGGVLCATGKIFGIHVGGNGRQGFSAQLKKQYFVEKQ

Compound | EC50 (HRV-14) [nM] | EC50 ([2]; H1-HeLa, HRV-1A) [nM] | EC50 ([2]; H1-HeLa, HRV-2) [nM] | EC50 ([2]; H1-HeLa, HRV-23) [nM] | EC50 [2, 6] [nM] | EC50 [2, 7] [nM] | EC50 [2, 8] [nM] | EC50 [2, 9] [nM] | EC50 [2, 10] [nM] | EC50 [2, 11] [nM] | EC50 [2, 12] [nM] | EC50 [2, 13] [nM] | EC50 [2, 14] [nM] | EC50 [2, 15] [nM] | EC50 [2, 16] [nM] | EC50 [2, 17] [nM] | EC50 [3] [nM] | EC50 (coxsackievirus B2 (CVB2)) [nM] | kinact/KI [1, 18] [M⁻¹ s⁻¹] | further results
C#CC[C@@H](C(=O)N[C@H](/C=C/C(=O)OCc1ccccc1)C[C@@H]1CCNC1=O)n1cccc(NC(=O)c2cc(C)on2)c1=O [Compound 63, trans-(2′S,3′″″S,4S)-4-[2′-(3″-{[1′″-(5″″-Methylisoxazol-3″″-yl)methanoyl]amino}-2′″-oxo-2′″H-pyridin-1′″-yl)pent-4″-ynoylamino]-5-(2′″″-oxopyrrolidin-3′″″-yl)pent-2-enoic Acid Benzyl Ester] | 51 | 12 | 24 | 37 | 400 | 27 | 65 | 46 | 17 | 45 | 46 | 14 | 7 | 35 | 34 | – | – | – | – | kinact/KI [1, 5]: 300000 M⁻¹ s⁻¹; EC50 ([3]; H1-HeLa): 14 nM
C#CC[C@@H](C(=O)N[C@H](/C=C/C(=O)OCC)C[C@@H]1CCNC1=O)n1cccc(NC(=O)c2cc(C)on2)c1=O [Compound 31, trans-(2′S,3″″S,4S)-4-(2′-{3″-[(5′″-Methyl-isoxazole-3′″-carbonyl)amino]-2″-oxo-2″H-pyridin-1″-yl}pent-4′-ynoyl-amino)-5-(2″″-oxopyrrolidin-3″″-yl)pent-2-enoic Acid Ethyl Ester] | 22 | 36 | 13 | 42 | 49 | 21 | 44 | 48 | 5 | 60 | 38 | 50 | 87 | 43 | 61 | 21 | 24 | 57 | – | kinact/KI ([1]; pH 7.6, read-out: kobs/[I] (3C protease inhibition activity)): 223000 M⁻¹ s⁻¹; CC50 at 4 days ([4]; line of ECHO-6): > 10000 nM
C#CC[C@@H](C(=O)N[C@H](/C=C/C(=O)OC1CCC1)C[C@@H]1CCNC1=O)n1cccc(NC(=O)c2cc(C)on2)c1=O [Compound 53, trans-(2′S,3′″″S,4S)-4-[2′-(3″-{[1′″-(5″″-Methylisoxazol-3″″-yl)methanoyl]amino}-2′″-oxo-2′″H-pyridin-1′″-yl)pent-4″-ynoylamino]-5-(2′″″-oxopyrrolidin-3′″″-yl)pent-2-enoic Acid Cyclobutyl Ester] | 40 | 128 | 78 | 45 | 137 | 44 | 133 | 37 | 20 | 157 | 102 | 53 | 66 | 125 | 40 | – | 156 | 154 | 207000 | CC50 at 4 days ([4]; line of ECHO-9): > 10000 nM
CC[C@@H](C(=O)N[C@H](/C=C/C(=O)OCc1ccccc1)C[C@@H]1CCNC1=O)n1cccc(NC(=O)c2cc(C)on2)c1=O [Compound 62, trans-(2′S,3′″″S,4S)-4-[2′-(3″-{[1′″-(5″″-Methylisoxazol-3″″-yl)methanoyl]amino}-2′″oxo-2′″H-pyridin-1′″-yl)butanoylamino]-5-(2′″″-oxopyrrolidin-3′″″-yl)pent-2-enoic Acid Benzyl Ester] | 61 | 17 | 45 | 32 | 52 | 52 | 130 | 52 | 10 | 4 | 53 | 21 | 18 | 43 | 57 | – | – | – | – | kinact/KI [1, 5]: 210000 M⁻¹ s⁻¹; EC50 ([3]; H1-HeLa): 15 nM
C#CC[C@@H](C(=O)N[C@H](/C=C/C(=O)OC(C)(C)C)C[C@@H]1CCNC1=O)n1cccc(NC(=O)c2cc(C)on2)c1=O [Compound 41, trans-(2′S,3′″″S,4S)-4-[2′-(3″-{[1′″-(5″″-Methylisoxazol-3″″-yl)methanoyl]amino}-2′″-oxo-2′″H-pyridin-1′″-yl)pent-4″-ynoylamino]-5-(2′″″-oxopyrrolidin-3′″″-yl)pent-2-enoic Acid tert-Butyl Ester] | 62 | – | 155 | – | – | 54 | 562 | – | – | – | 416 | – | 829 | 445 | – | 60 | 117 | 213 | 60500 | CC50 at 4 days ([4]; line of ECHO-11): > 10000 nM
CCOC(=O)/C=C/[C@H](C[C@@H]1CCNC1=O)NC(=O)[C@H](CC)n1cccc(NC(=O)c2cc(C)on2)c1=O [Compound 26, trans-(2′S,3″″S,4S)-4-(2′-{3″-[(5′″-Methylisoxazole-3′″-carbonyl)amino]-2″-oxo-2″H-pyridin-1″-yl}butyrylamino)-5-(2″″-oxopyrrolidin-3″″-yl)pent-2-enoic Acid Ethyl Ester] | 55 | 14 | 16 | 40 | 54 | 29 | 45 | 27 | 4 | 58 | 50 | 65 | 102 | 47 | 57 | 21 | 16 | 55 | 170000 | CC50 at 4 days ([4]; line of ECHO-11): > 10000 nM
Cc1cc(C(=O)Nc2cccn([C@@H](Cc3ccc(F)c(F)c3)C(=O)N[C@H](/C=C/C(=O)OC(C)C)C[C@@H]3CCNC3=O)c2=O)no1 [Compound 48, trans-(2′S,3″″″S,4S)-4-[3′-(3″,4″-Difluorophenyl)-2′-(3′″-{[1″″-(5′″″-methylisoxazol-3′″″-yl)methanoyl]amino}-2″″-oxo-2″″H-pyridin-1″″-yl)propanoylamino]-5-(2″″″-oxopyrrolidin-3″″″-yl)pent-2-enoic Acid Isopropyl Ester] | 3 | 132 | 48 | 10 | 3 | 33 | 109 | 85 | 3 | 44 | 36 | 9 | 100 | 44 | 12 | – | 187 | 162 | – | CC50 at 4 days ([4]; line of ECHO-9): > 10000 nM
